Measurements taken from patent US8809298B2, “Methods, compositions, unit dosage forms, and kits testing for pharmacologic stress testing with reduced side effects” (Adenobio N.V., priority 2006, dated 2014).
Several values for one entry are separate records, joined by “and”; a condition that tells them apart may be missing. Equal entries are not always repeated.

Columns and labels:
[1] = system: patients suffering from ischemic heart disease; experiment: Transthoracic doppler echocardiography (TTDE): blood flow velocity in the left anterior descending coronary artery (LAD); type: in vivo, human; conditions: for Mean velocity ADE Max / Peak velocity ADE Max: adenosine alone 140 μg/kg/min IV, under stress conditions; for Mean velocity ADE Min / Peak velocity ADE Min: at rest (basal conditions) before adenosine 140 μg/kg/min; for MV-DIP Min / PV-DIP Min: at rest, dipyridamole alone arm
Experimental: In the combined administration, each of the two agents was administered at a dosage lower than its clinically preferred dosage when used as a single agent for myocardial perfusion imaging. Effects were measured using noninvasive transthoracic doppler echocardiography (TTDE).
The protocol was designed as follows.
Forty (40) consecutive patients suffering from ischemic heart disease were enrolled. Each patient served as their own control.
[…] These total doses are between about 4-6% of the lowest single-agent total dose of dipyridamole (i.e., 0.56 mg/kg, infused over a total of 4 minutes).
This dose is half the standard single-agent dosage rate of 140 μg/kg/min.

coronary patients [2] = experiment: Phase II SPECT imaging study: stress scores, 17-segment model; type: in vivo, human; parameters: key: sum of abnormal segment scores, each 0 = normal to 4 = no uptake; conditions: adenosine alone 140 μg/kg/min; Series I, individual patients 1-10; listed as Adenoscan
Experimental: The study, which is ongoing, is a mono-center, single-blind, 2-arm, cross-over trial.
Only those patients in whom an ischemic zone was detected were declared eligible for the second test, and were enrolled in the study if other inclusion criteria were satisfied.
SPECT images were acquired as per the standard approach performed the preceding week.
Randomization of SPECT images, and their analysis by two blinded readers, took place every 10 patients. Anonymous and randomized images were assessed using the standard 17-segment model and the semi-quantitative visual score method on a 5-point scale (from 0 to 4).
The “stress score” is the image of ischemia in one or more of the 17 cardiac segments, as scored from 0 to 4 by the blinded reader using the following scale: normal perfusion=0, mild reduction in counts=1, moderate reduction in counts=2, severe reduction=3, absence of uptake=4). Normally, a zone of ischemia is certain when a score ≧4 is noted. A stress score sums the scores of all abnormal segments.
“Stress score A” is the image score difference between stress conditions between adenosine alone and rest conditions. […] “Delta score” is the difference between “Stress score A” and “Stress score B.” It must not be >2 […]

coronary patients [3] = experiment: Safety of the procedure in the Phase II SPECT study: adverse events, visual scale, ST changes on EKG; type: in vivo, human
Experimental: Given the similar adverse effect profile, the 40 μg/kg dipyridamole dose is currently preferred, since it tends to show greater efficacy.
Table 13 gives adverse event severity cumulated scores, evaluated on a visual scale (going from 0 to 10), for the first 27 patients.
At this point in time, no difference in the occurrence of A2 receptor-related side effects, or severity of symptoms, has become clearly apparent as between the combination stressor and Adenoscan. In contrast, the reduction in the occurrence (−43%) and severity (−69%) of chest pain (an A1 receptor-related adverse effect) has already become manifest in the first 27 patients. […] The difference in ST-variation for each patient alone is not significant, but the total difference has achieved significance, with a clear trend in favor of the combination. In the table below (Table 14) ST-changes/baseline are expressed in millimeters.

[4] = system: patients suffering from ischemic heart disease; experiment: Patient tolerance in Example 1: adverse events, VAS severity, EKG, vital signs; conditions: for Mean global visual analogue scale (VAS) score for the three main adverse events: total score of 30, ADE 140 μg/kg/min, SC adenosine 70 μg/kg/min
Text: (§1) Primary efficacy end-points were peak and mean diastolic flow velocities (measured as reflecting coronary blood flow values). The secondary end-point was patient tolerance to the procedure.
(§2) VAS scores provide a measure of patient self-assessment of pain intensity/discomfort.

[5] = system: patients suffering from ischemic heart disease; conditions: human, in vivo, iv
Text: as §1, §2

[6] = cited from earlier work
[7] = mean of 5 patients (DIP4 group)
[8] = mean of 5 patients (DIP6 group)
[9] = mean of 30 patients (DIP5 group)
[10] = at rest before adenosine infusion, individual patients (second control experiment)
[11] = at rest before first adenosine infusion, individual patients, listed as ADE1
[12] = at rest before first adenosine infusion, mean of 5 patients
[13] = at rest before second adenosine infusion, individual patients, listed as ADE2
[14] = at rest before second adenosine infusion, mean of 5 patients
[15] = first adenosine infusion 140 μg/kg/min, stress, mean of 5 patients
[16] = first vs second adenosine infusion 140 μg/kg/min, 5 patients
[17] = second adenosine infusion 140 μg/kg/min after 5 minute stabilization, stress, individual patients, listed as ADE2
[18] = second adenosine infusion 140 μg/kg/min, stress, mean of 5 patients
[19] = three minute adenosine infusion 140 μg/kg/min, stress, individual patients (second control experiment)
[20] = Adenoscan alone 140 μg/kg/min, n=27
[21] = visual scale 0 to 10, cumulated over first 27 patients
[22] = adenosine alone 140 μg/kg/min, 40 patients
[23] = dipyridamole alone, bolus 28 μg/kg, individual patient
[24] = dipyridamole alone, bolus 35 μg/kg, individual patients
[25] = dipyridamole alone, bolus 40 μg/kg, individual patients

SMILES: Nc1ncnc2c1ncn2[C@@H]1O[C@H](CO)[C@@H](O)[C@H]1O [ADE, adenosine]
- Differences in velocity measurements between first and second adenosine infusions ([1]; 140 μg/kg/min twice, 5 patients, P>0.05): No statistically significant differences
- Mean velocity ADE Max ([1]; (DIP5 group)): 61.4 cm/s
- Mean velocity ADE Max ([1]; cumulated, all 40 patients): 63.6 cm/s
- Peak velocity ADE Max ([1]; cumulated, all 40 patients): 85.3 cm/sec
- Mean velocity ADE Max [1, 7]: 60.4 cm/s
- Peak velocity ADE Max [1, 7]: 80 cm/sec
- Mean velocity ADE Max [1, 8]: 80.2 cm/s
- Peak velocity ADE Max [1, 8]: 107 cm/sec
- Peak velocity ADE Max [1, 9]: 82.6 cm/sec
- Mean velocity ADE Min ([1]; cumulated, all 40 patients): 23.7 cm/s
- Peak velocity ADE Min ([1]; cumulated, all 40 patients): 31.2 cm/sec
- Mean velocity ADE Min [1, 7]: 22.2 cm/s
- Peak velocity ADE Min [1, 7]: 28 cm/sec
- Mean velocity ADE Min [1, 8]: 28.2 cm/s
- Peak velocity ADE Min [1, 8]: 37.6 cm/sec
- Mean velocity ADE Min [1, 9]: 23.1 cm/s
- Peak velocity ADE Min [1, 9]: 30.6 cm/sec
- MV-ADE Min [1, 10]: 21 cm/sec and 23 cm/sec (2×) and 25 cm/sec and 20 cm/sec
- PV-ADE Min [1, 10]: 25 cm/sec and 33 cm/sec (2×) and 27 cm/sec and 32 cm/sec
- MV-ADE1 Min [1, 11]: 25 cm/s and 17 cm/s and 22 cm/s and 23 cm/s and 20 cm/s
- PV-ADE1 Min [1, 11]: 34 cm/sec and 23 cm/sec and 30 cm/sec (2×) and 28 cm/sec
- MV-ADE1 Min, Mean [1, 12]: 21.4 cm/s
- PV-ADE1 Min, Mean [1, 12]: 29 cm/sec
- MV-ADE2 Min [1, 13]: 23 cm/s and 16 cm/s and 22 cm/s and 21 cm/s and 20 cm/s
- PV-ADE2 Min [1, 13]: 31 cm/sec and 22 cm/sec and 29 cm/sec and 26 cm/sec and 25 cm/sec
- MV-ADE2 Min, Mean [1, 14]: 20.4 cm/s
- PV-ADE2 Min, Mean [1, 14]: 26.6 cm/sec
- PV-ADE1 Max ([1]; first adenosine infusion 140 μg/kg/min, stress, individual patients (first control experiment), listed as ADE1): 68 cm/sec and 65 cm/sec and 102 cm/sec and 73 cm/sec and 70 cm/sec
- MV-ADE1 Max ([1]; first adenosine infusion 140 μg/kg/min, stress, individual patients, listed as ADE1): 49 cm/s and 48 cm/s and 75 cm/s and 53 cm/s and 50 cm/s
- MV-ADE1 Max, Mean [1, 15]: 55 cm/s
- PV-ADE1 Max, Mean [1, 15]: 75.6 cm/sec
- Max velocity differential MV (ADE1 − ADE2) [1, 16]: (ADE2) = 2.4 cm/sec
- Max velocity differential PV (ADE1 − ADE2) [1, 16]: (ADE2) = 4.8 cm/sec
- MV-ADE2 Max [1, 17]: 45 cm/sec and 48 cm/sec (2×) and 75 cm/sec and 47 cm/sec
- PV-ADE2 Max [1, 17]: 60 cm/sec and 66 cm/sec and 103 cm/sec and 63 cm/sec and 62 cm/sec
- MV-ADE2 Max, Mean [1, 18]: 52.6 cm/s
- PV-ADE2 Max, Mean [1, 18]: 70.8 cm/sec
- MV-ADE Max [1, 19]: 71 cm/s and 67 cm/s and 86 cm/s and 64 cm/s and 61 cm/s
- PV-ADE Max [1, 19]: 88 cm/sec and 92 cm/sec and 112 cm/sec and 84 cm/sec (2×)
- Stress score A (Adenoscan) (coronary patients [2]): 5 (5×) and 4 (2×) and 14 and 13 and 7
- Chest pain: # patients reporting event, ADE (coronary patients [3]; [20]): 14
- Dyspnea: # patients reporting event, ADE (coronary patients [3]; [20]): 11
- Flushing: # patients reporting event, ADE (coronary patients [3]; [20]): 14
- ST-changes/baseline, Adenosine 140 μg/kg/mn (coronary patients [3]; EKG, individual patients with ST variations (6 of 27)): 0.5 millimeters and 1 millimeters (3×) and 0.8 millimeters and 1.2 millimeters
- ST-changes/baseline, Adenosine 140 μg/kg/mn, Total (coronary patients [3]; EKG, total of 6 patients): 5.5 millimeters
- Chest pain: adverse event severity cumulated score (coronary patients [3]; [21]): 60
- Dyspnea: adverse event severity cumulated score (coronary patients [3]; [21]): 40
- Flushing: adverse event severity cumulated score (coronary patients [3]; [21]): 43.5
- Mean global visual analogue scale (VAS) score for the three main adverse events ([4]; Group DIP4 (dipyridamole 35 μg/kg in SC), n=5): 5.4
- Mean global visual analogue scale (VAS) score for the three main adverse events ([4]; Group DIP5 (dipyridamole 28 μg/kg in SC), n=30): 5.95
- Mean global visual analogue scale (VAS) score for the three main adverse events ([4]; Group DIP6 (dipyridamole 23 μg/kg in SC), n=5): 8.2
- Symptoms under ADE ([4]; adenosine 140 μg/kg/min, individual patients (second control experiment)): None (2×) and Dyspnea and Flushing (2×)
- Symptoms under ADE: score ([4]; adenosine 140 μg/kg/min, score out of 10, individual patients): 5/10 and 8/10 and 6/10
- Chest pain: # patients reporting events, ADE [4, 22]: 9
- Chest pain: frequency, ADE [4, 22]: 22.5%
- Dyspnea: # patients reporting events, ADE [4, 22]: 20
- Dyspnea: frequency, ADE [4, 22]: 50%
- Flushing: # patients reporting events, ADE [4, 22]: 21
- Flushing: frequency, ADE [4, 22]: 52.5%

SMILES: OCCN(CCO)c1nc(N2CCCCC2)c2nc(N(CCO)CCO)nc(N3CCCCC3)c2n1 [DIP, dipyridamole]
- MV-DIP Min ([1]; 28 μg/kg, individual patient): 19 cm/s
- PV-DIP Min ([1]; 28 μg/kg, individual patient): 23 cm/sec
- MV-DIP Min ([1]; 35 μg/kg, individual patients): 18 cm/s and 22 cm/s
- PV-DIP Min ([1]; 35 μg/kg, individual patients): 21 cm/sec and 30 cm/sec
- MV-DIP Min ([1]; 40 μg/kg, individual patients): 23 cm/s and 24 cm/s
- PV-DIP Min ([1]; 40 μg/kg, individual patients): 33 cm/sec and 34 cm/sec
- Effect on peak and mean diastolic velocities ([1]; dipyridamole alone, IV bolus 28 to 40 μg/kg, 5 patients): did not modify
- MV-DIP Max [1, 23]: 21 cm/s
- PV-DIP Max [1, 23]: 26 cm/sec
- MV-DIP Max [1, 24]: 20 cm/s and 28 cm/s
- PV-DIP Max [1, 24]: 23 cm/sec and 40 cm/sec
- MV-DIP Max [1, 25]: 25 cm/s and 29 cm/s
- PV-DIP Max [1, 25]: 35 cm/sec and 40 cm/sec
- Symptoms during a follow-up of 10 minutes [5]: No symptoms
- Stability in solvents ([6]; pH>4, long term): unstable in the long term
- Solubility in saline ([6]; saline): poorly soluble
